Data from patent US20230095836A1, “SUBSTITUTED 5,6-DIPHENYL-3(2H)-PYRIDAZINONES FOR USE AS FUNGICIDES” (FMC Corporation, priority 2020, published 2023).

Key:
[1] = test system: Blumeria graminis f. sp. tritici; test: Test C: test suspension sprayed on wheat seedlings, inoculated next day with Blumeria graminis f. sp. tritici (wheat powdery mildew); visual disease rating (100 = 100% disease control, 0 = no control; dash = not tested); assay type: in vivo
Procedure, shortened: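 Visual ratings of disease control (0–100, relative to controls) were made 8 days after inoculation with B. graminis f. sp. tritici spore dust. Plants were held at 20 °C. Compound was applied as a spray to run-off one day before inoculation.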

[2] = test system: Botrytis cinerea; test: Test E: test suspension sprayed on tomato seedlings, inoculated next day with Botrytis cinerea (tomato Botrytis); visual disease rating (100 = 100% disease control, 0 = no control; dash = not tested); assay type: in vivo
Procedure, shortened: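 Spores were applied one day after spraying the seedlings to run-off. Incubation was 48 h saturated at 20° C, then 3 days in a 24° C growth chamber. Visual ratings, relative to untreated controls, run from 0 (no control) to 100 (complete control).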

[3] = test system: Phakopsora pachyrhizi; test: Test D: test solution sprayed on soybean seedlings, inoculated next day with Phakopsora pachyrhizi (Asian soybean rust); visual disease rating (100 = 100% disease control, 0 = no control; dash = not tested); assay type: in vivo
Procedure, shortened: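 Preventive spray test: soybean seedlings treated to run-off with ppm-level suspensions (acetone/water 50/50, 250 ppm PEG400), spore-inoculated one day later. Held 24 h at 22 °C in saturated air, then 8 days at 22 °C; disease control scored visually versus untreated plants, 0 = none, 100 = complete.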

[4] = test system: Zymoseptoria tritici; test: Test A: test solution sprayed on wheat seedlings, inoculated next day with Zymoseptoria tritici (wheat leaf blotch); disease rating (100 = 100% disease control, 0 = no control; dash = not tested); assay type: in vivo
Procedure, shortened: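 Preventive spray test: compound applied to run-off one day before spore inoculation of wheat seedlings. Incubation was 48 h saturated humidity at 24° C followed by 17 days at 20° C. Disease then scored 0–100 as % control versus untreated plants.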

[5] = test system: Alternaria solani; test: Test F: test suspension sprayed on tomato seedlings, inoculated next day with Alternaria solani (tomato early blight); visual disease rating (100 = 100% disease control, 0 = no control; dash = not tested); assay type: in vivo
Procedure, shortened: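 Visual ratings of % disease control versus controls were made after inoculated plants spent 48 h at 27° C. in saturated air plus 3 days at 20° C. The compound suspension had been sprayed to run-off one day before spore inoculation.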

[6] = test system: Puccinia recondita f. sp. tritici; test: Test B: test solution sprayed on wheat seedlings, inoculated next day with Puccinia recondita f. sp. tritici (wheat leaf rust); disease rating (100 = 100% disease control, 0 = no control; dash = not tested); assay type: in vivo
Source text: The resulting test suspensions were then used in Tests A-F. The test solution was sprayed to the point of run-off on wheat seedlings. […] A rating of 100 indicates 100% disease control and a rating of 0 indicates no disease control (relative to the controls). A dash (—) indicates the compound was not tested.

| Structure (SMILES) | Test C disease control rating ([1]; 50 ppm) [%] | Test E disease control rating ([2]; 50 ppm) [%] | Test D disease control rating ([3]; 50 ppm) [%] | Test A disease control rating ([4]; 50 ppm) [%] | Test F disease control rating ([5]; 50 ppm) [%] | Test B disease control rating ([6]; 50 ppm) [%] | also measured |
| --- | --- | --- | --- | --- | --- | --- | --- |
| COc1cc(OC)c([N+](=O)[O-])c(-c2nn(C)c(=O)cc2-c2c(F)cccc2F)c1 [Compound 13, 5-(2,6-difluorophenyl)-6-(3,5-dimethoxy-2-nitrophenyl)-2-methyl-3(2H)-pyridazinone] | – | – | – | – | – | – | pest or weed control at 250 ppm ([1]; 250 ppm): 81%; pest or weed control at 250 ppm ([2]; 250 ppm): 99%; pest or weed control at 250 ppm ([3]; 250 ppm): 63%; pest or weed control at 250 ppm ([4]; 250 ppm): 94%; pest or weed control at 250 ppm ([5]; 250 ppm): 9%; melting point: 174 to 178 °C; pest or weed control at 250 ppm ([6]; 250 ppm): 99% |
| COc1ccc(Cl)c(-c2nn(C)c(=O)c(Cl)c2-c2ccc(F)cc2Cl)c1 [Compound 83, 4-chloro-5-(2-chloro-4-fluorophenyl)-6-(2-chloro-5-methoxyphenyl)-2-methyl-3(2H)-pyridazinone] | – | – | – | – | – | – | pest or weed control at 50 ppm ([1]; 50 ppm): 99%; pest or weed control at 50 ppm ([2]; 50 ppm): 92%; pest or weed control at 50 ppm ([3]; 50 ppm): 100%; pest or weed control at 50 ppm ([4]; 50 ppm): 100%; pest or weed control at 50 ppm ([5]; 50 ppm): 100%; melting point: 165 to 168 °C; pest or weed control at 50 ppm ([6]; 50 ppm): 100% |
| COc1ccc(Cl)c(-c2nn(C)c(=O)c(C)c2-c2c(F)cccc2F)c1 [Compound 68, 6-(2-chloro-5-methoxyphenyl)-5-(2,6-difluorophenyl)-2,4-dimethyl-3(2H)-pyridazinone] | – | – | – | – | – | – | pest or weed control at 50 ppm ([1]; 50 ppm): 100%; pest or weed control at 50 ppm ([2]; 50 ppm): 99%; pest or weed control at 50 ppm ([3]; 50 ppm): 100%; pest or weed control at 50 ppm ([4]; 50 ppm): 100%; pest or weed control at 50 ppm ([5]; 50 ppm): 100%; melting point: 135 to 138 °C; pest or weed control at 50 ppm ([6]; 50 ppm): 100% |
| COc1ccc(Cl)c(-c2nn(C)c(=O)c(Cl)c2-c2c(F)cccc2F)c1 [Compound 57, 4-chloro-6-(2-chloro-5-methoxyphenyl)-5-(2,6-difluorophenyl)-2-methyl-3(2H)-pyridazinone] | – | – | – | – | – | – | pest or weed control at 50 ppm ([1]; 50 ppm): 99%; pest or weed control at 50 ppm ([2]; 50 ppm): 99%; pest or weed control at 50 ppm ([3]; 50 ppm): 99%; pest or weed control at 50 ppm ([4]; 50 ppm): 100%; pest or weed control at 50 ppm ([5]; 50 ppm): 100%; melting point: 134 to 137 °C; pest or weed control at 50 ppm ([6]; 50 ppm): 100% |
| COc1cc(OC)c(Cl)c(-c2nn(C)c(=O)c(OC)c2-c2ccc(F)cc2Cl)c1 [Compound 80, 6-(2-chloro-3,5-dimethoxyphenyl)-5-(2-chloro-4-fluorophenyl)-4-methoxy-2-methyl-3(2H)-pyridazinone] | – | – | – | – | – | – | pest or weed control at 50 ppm ([1]; 50 ppm): 100%; pest or weed control at 50 ppm ([2]; 50 ppm): 99%; pest or weed control at 50 ppm ([3]; 50 ppm): 100%; pest or weed control at 50 ppm ([4]; 50 ppm): 100%; pest or weed control at 50 ppm ([5]; 50 ppm): 100%; melting point: 130 to 133 °C; pest or weed control at 50 ppm ([6]; 50 ppm): 100% |
| COc1ccc(Cl)c(-c2nn(C)c(=O)c(Cl)c2-c2ccccc2Cl)c1 [Compound 184] | 96 | 96 | 99 | 100 | 99 | 100 | – |
| CCOC(=O)c1c(-c2ccc(F)cc2Cl)c(-c2ccc(F)cc2Cl)nn(C)c1=O [Compound 153] | – | – | – | – | – | – | Test C disease control rating ([1]; 250 ppm): 96%; Test E disease control rating ([2]; 250 ppm): 0%; Test D disease control rating ([3]; 250 ppm): 71%; Test A disease control rating ([4]; 250 ppm): 0%; Test F disease control rating ([5]; 250 ppm): 0%; Test B disease control rating ([6]; 250 ppm): 0% |
| CCc1c(-c2ccc(F)cc2Cl)c(-c2c(Cl)c(OC)cc(OC)c2Br)nn(C)c1=O [Compound 45] | 69 | 0 | 0 | 0 | 0 | 0 | – |
| CCn1nc(-c2cc(OC)cc(OC)c2Cl)c(-c2ccc(F)cc2Cl)cc1=O [Compound 202] | 72 | 99 | 44 | 99 | 0 | 68 | – |
| Cn1nc(-c2ccc(F)cc2Cl)c(-c2ccc(F)cc2Cl)cc1=O [Compound 70] | 76 | 98 | 52 | 93 | 0 | 41 | – |
| Cn1nc(-c2ccccc2Cl)c(-c2ccc(F)cc2Cl)c(Cl)c1=O [Compound 73] | 99 | 99 | 97 | 100 | 99 | 100 | – |
| Cn1nc(-c2ccccc2F)c(-c2ccc(F)cc2Cl)c(Cl)c1=O [Compound 72] | 99 | 98 | 75 | 100 | 99 | 99 | – |
| COc1ccc(Cl)c(-c2nn(C)c(=O)c(OC)c2-c2ccc(F)cc2Br)c1 [Compound 103] | 100 | 91 | 97 | 100 | 99 | 100 | – |
| COc1ccc(Cl)c(C2=NN(C)C(=O)C(C)C2c2c(F)cccc2F)c1 (centres unmarked) [Compound 208] | 99 | 100 | 0 | 96 | 100 | 100 | – |
| Cn1nc(-c2ccc(F)cc2Br)c(-c2ccc(F)cc2Cl)c(Cl)c1=O [Compound 156] | 99 | 100 | 96 | 99 | 87 | 100 | – |
| COc1cc(F)c(Cl)c(-c2nn(C)c(=O)cc2-c2c(F)cccc2F)c1 [Compound 205] | 98 | 99 | 71 | 100 | 99 | 99 | – |
| COc1ccc(Cl)c(-c2nn(C)c(=O)c(Br)c2-c2c(F)cccc2F)c1 [Compound 69] | 100 | 100 | 100 | 100 | 100 | 99 | – |
| COc1cc(F)c(-c2c(-c3cc(OC)ccc3Cl)nn(C)c(=O)c2Cl)c(F)c1 [Compound 96] | 97 | 96 | 100 | 100 | 100 | 100 | – |
| COc1c(-c2ccc(F)cc2Cl)c(-c2cccc(F)c2Cl)nn(C)c1=O [Compound 154] | 100 | 100 | 87 | 100 | 100 | 100 | – |
| Cn1nc(-c2ccccc2)c(-c2ccc(F)cc2Cl)c(Cl)c1=O [Compound 141, 4-chloro-5-(2-chloro-4-fluorophenyl)-2-methyl-6-phenyl-3(2H)-pyridazinone] | – | – | – | – | – | – | pest or weed control at 50 ppm ([1]; 50 ppm): 99%; pest or weed control at 50 ppm ([2]; 50 ppm): 98%; pest or weed control at 50 ppm ([3]; 50 ppm): 0%; pest or weed control at 50 ppm ([4]; 50 ppm): 99%; pest or weed control at 50 ppm ([5]; 50 ppm): 99%; pest or weed control at 50 ppm ([6]; 50 ppm): 98% |
| CCn1nc(-c2cc(OC)cc(OC)c2Br)c(-c2c(F)cccc2F)cc1=O [Compound 17] | 94 | 99 | 73 | 98 | 0 | 99 | – |
| COc1c(-c2ccc(F)cc2Cl)c(-c2cc(C#N)ccc2Cl)nn(C)c1=O [Compound 53] | 99 | 92 | 68 | 100 | 40 | 100 | – |
| COCc1c(-c2ccc(F)cc2Cl)c(-c2ccc(F)cc2Cl)nn(C)c1=O [Compound 122] | 98 | 53 | 0 | 100 | 0 | 0 | – |
| COc1cc(OC)c(Cl)c(-c2nn(C)c(=O)c(C)c2-c2c(F)cccc2F)c1 [Compound 194, 6-(2-chloro-3,5-dimethoxyphenyl)-5-(2,6-difluorophenyl)-2,4-dimethyl-3(2H)-pyridazinone] | – | – | – | – | – | – | pest or weed control at 50 ppm ([1]; 50 ppm): 100%; pest or weed control at 50 ppm ([2]; 50 ppm): 100%; pest or weed control at 50 ppm ([3]; 50 ppm): 100%; pest or weed control at 50 ppm ([4]; 50 ppm): 100%; pest or weed control at 50 ppm ([5]; 50 ppm): 99%; pest or weed control at 50 ppm ([6]; 50 ppm): 100% |
